Where two headings read alike, the source gives them in different places.
Tests used:
[1] = test system: P388 leukemia; test: Antitumor activity in CDF1 mice with intraperitoneally transplanted P388 leukemia, i.v. administration, 30-day survival; format: in vivo; conditions: for Increase in life span T/C (%): days 1 and 5, saline control = 100%; for ED (T/C 130%): Mus musculus, 720 h
[2] = in vivo; conditions: mouse, iv
[3] = Stability of M-R20X3 during measurements (1) through (4); format: physicochemical

COc1cccc2c1C(=O)c1c(O)c3c(c(O)c1C2=O)C[C@@](O)(C(=O)CO)C[C@@H]3O[C@H]1C[C@H](N)[C@H](O)[C@H](C)O1 [Adriamycin, reference compound]
Increase in life span T/C (%) ([1]; 1 mg/kg/day i.v.): 103% | Increase in life span T/C (%) ([1]; 2 mg/kg/day i.v.): 119% | Increase in life span T/C (%) ([1]; 4 mg/kg/day i.v.): 133% | Increase in life span T/C (%) ([1]; 8 mg/kg/day i.v.): 165% | Increase in life span T/C (%) ([1]; 12 mg/kg/day i.v.): 244%

CC[C@@]1(O)C[C@H](O[C@H]2C[C@H](N3CCOCC3)[C@H](O)[C@H](C)O2)c2c(O)c3c(c(O)c2C1O)C(=O)c1cccc(O)c1C3=O (some centres unmarked) [M-R20X2, 3'-deamino-3'-(4-morpholinyl)-13-deoxo-10-hydroxycarminomycin]
LD50 [2]: 3.55 mg/kg | ED (T/C 130%) ([1]; P388, iv, read-out: Dose for T/C = 130% (mg/kg/day)): 0.43 mg/kg/day | Therapeutic index ([1]; mouse, in vivo, iv): 4.7 | Solubility (soluble in) (acidic water, basic water, methanol, ethanol, propanol, acetone, ethyl acetate, and chloroform): Soluble | Solubility (insoluble in) (water, hexane, cyclohexane, diethyl ether, and petroleum ether): Insoluble

CC[C@@]1(O)C[C@H](O[C@H]2C[C@H](N3CCOCC3)[C@H](O)[C@H](C)O2)c2c(O)c3c(c(O)c2[C@H]1C(=O)O)C(=O)c1cccc(O)c1C3=O [M-R20X3, 3'-deamino-3'-(4-morpholinyl)-13-deoxo-10-hydroxycarbonylcarminomycin]
Stability (lability) [3]: extremely labile | Decomposition after completion of the measurements ([3]; measurements (1) through (4) carried out quickly): no decomposition was observed

CC[C@]1(O)Cc2c(O)c3c(c(O)c2[C@@H](O[C@H]2C[C@H](N4CCOCC4)[C@H](O)[C@H](C)O2)C1)C(=O)c1c(O)cccc1C3=O [M-R20X, 3'-deamino-3'-(4-morpholinyl)-13-deoxocarminomycin]
LD50 [2]: 12.3 mg/kg | ED (T/C 130%) ([1]; iv, i.v., P388 leukemia in CDF1 mice, read-out: Dose for T/C = 130%): 2.5 mg/kg/day

Source: US4833241A, “Anthracycline compound” (Kirin Beer Kabushiki Kaisha, priority 1986, dated 1989)
